Reference: patent US11524966B1 (Valo Early Discovery, Inc., priority 2017, dated 2022)

What was measured:
Format in all cases: biochemical
[1] = molecular target: T1, USP28 (USP28-5(1-1077)-TEV-6*His; LifeSensors) (Homo sapiens, UniProt Q96RU2); assay: Ubiquitin-Rhodamine 110 Assay for USP28 Activity, Example A-1(b); conditions: Example A-1(b)
T1 construct: construct USP28 (USP28-5(1-1077)-TEV-6*His; LifeSensors); TEV cleavage site (C); 6xHis (C); purchased LifeSensors
T1 sequence (Q96RU2 1-1077): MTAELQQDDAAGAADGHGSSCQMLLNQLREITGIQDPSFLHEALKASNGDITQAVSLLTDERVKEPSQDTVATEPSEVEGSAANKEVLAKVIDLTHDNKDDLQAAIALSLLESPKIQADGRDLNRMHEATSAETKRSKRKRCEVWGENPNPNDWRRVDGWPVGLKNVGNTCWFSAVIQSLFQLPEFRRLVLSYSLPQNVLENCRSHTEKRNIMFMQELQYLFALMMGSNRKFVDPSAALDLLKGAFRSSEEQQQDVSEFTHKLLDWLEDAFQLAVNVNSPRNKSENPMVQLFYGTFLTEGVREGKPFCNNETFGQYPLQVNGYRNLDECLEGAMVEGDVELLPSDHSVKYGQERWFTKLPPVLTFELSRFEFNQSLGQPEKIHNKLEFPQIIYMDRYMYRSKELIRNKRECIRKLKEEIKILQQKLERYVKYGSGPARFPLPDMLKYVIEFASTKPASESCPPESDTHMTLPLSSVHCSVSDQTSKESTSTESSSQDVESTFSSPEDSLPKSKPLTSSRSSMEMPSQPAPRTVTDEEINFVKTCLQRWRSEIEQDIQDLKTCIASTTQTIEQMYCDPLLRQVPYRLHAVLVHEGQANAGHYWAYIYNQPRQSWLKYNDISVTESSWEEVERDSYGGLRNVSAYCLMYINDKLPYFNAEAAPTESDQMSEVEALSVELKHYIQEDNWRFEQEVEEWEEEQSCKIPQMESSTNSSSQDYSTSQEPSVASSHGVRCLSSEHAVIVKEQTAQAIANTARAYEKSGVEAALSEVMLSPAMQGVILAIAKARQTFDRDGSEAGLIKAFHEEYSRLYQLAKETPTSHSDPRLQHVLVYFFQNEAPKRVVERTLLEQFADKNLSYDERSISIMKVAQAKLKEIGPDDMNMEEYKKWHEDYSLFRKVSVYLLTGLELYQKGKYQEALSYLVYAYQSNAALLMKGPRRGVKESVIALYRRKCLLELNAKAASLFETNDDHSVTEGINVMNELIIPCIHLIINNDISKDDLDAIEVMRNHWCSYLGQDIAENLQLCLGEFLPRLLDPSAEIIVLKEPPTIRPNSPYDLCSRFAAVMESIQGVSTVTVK
Procedure: Example A-1(b): Biochemical Assay: Ubiquitin-Rhodamine 110 Assay for USP28 Activity
Each assay was performed in a final volume of 20 μL in assay buffer containing 20 mM Tris-HCl (pH 8.0, (1M Tris-HCl, pH 8.0 solution; Corning 46-031-CM)), 2 mM CaCl2) (1M Calcium Chloride solution; Sigma #21114) 2 mM BME (2-Mercaptoethanol; Sigma 63689-25ML-F), 0.01% Prionex ([…] filtered, Sigma #G-0411), and 0.01% Triton X-100. Stock compound solutions were stored at −20° C. as 10 mM in DMSO. Up to 1 month prior to the assay, 2 mM test compounds were pre-dispensed into assay plates (Black, low volume; Corning #3820) and frozen at −20° C. Prestamped assay plates were allowed to come to room temperature on the day of the assay. For the screen, 100 nL of 2 mM was pre-dispensed for a final screening concentration of 10 μM (DMSO(fc)=0.5%). […] Plates were incubated stacked for 90 minutes at room temperature before fluorescence was read on the Envision (Excitation at 485 nm and Emission at 535 nm; Perkin Elmer) or on the PheraSTAR (Excitation at 485 nm and Emission at 535 nm; BMG Labtech).
For follow-up studies, each assay was performed in a final volume of 15 μL in assay buffer containing 20 mM Tris-HCl (pH 8.0, (1M Tris-HCl, pH 8.0 solution; Corning 46-031-CM)), 3 mM BME (2-Mercaptoethanol; Sigma 63689-25ML-F), 0.03% BGG (0.22 μM filtered, Sigma, G7516-25G), and 0.01% Triton X-100 (Sigma, T9284-10L). Nanoliter quantities of either an 8-point or 10-point, 3-fold serial dilution in DMSO was pre-dispensed into assay plates (Perkin Elmer, ProxiPlate-384 F Plus, #) for a final test concentration of either 25 μM to 11 nM or 25 μM to 1.3 nM, respectively. Enzyme USP28, construct USP28 (USP28-5(1-1077)-TEV-6*His; LifeSensors) concentration and incubation times were optimized for the maximal signal-to-background while maintaining initial velocity conditions at a fixed substrate concentration. The final concentration of the enzyme in the assay was 75 pM. Final substrate (Ub-Rh110; Ubiquitin-Rhodamine 110, R&D Systems #U-555) concentration was 25 nM with [Ub-Rh110]<<Km. 5 μL of 2× enzyme was added to assay plates (pre-stamped with compound) preincubated with USP28 for 30 minutes and then 5 μL of 2×Ub-Rh110 was added to assay plates. Plates were incubated stacked for 20 minutes at room temperature before 5 μL of stop solution was added (final concentration of 10 mM citric acid (Sigma, 251275-500G)). Fluorescence was read on the Envision (Excitation at 485 nm and Emission at 535 nm; Perkin Elmer) or on the PheraSTAR (Excitation at 485 nm and Emission at 535 nm; BMG Labtech).
For assay formats Example A-1(a), A-1(b), and A-2, data were reported as percent inhibition compared with control wells based on the following equation: % inh=1−((FLU−AveLow)/(AveHigh−AveLow)) where FLU=measured Fluorescence, AveLow=average Fluorescence of no enzyme control (n=16), and AveHigh=average Fluorescence of DMSO control (n=16). IC50 values were determined by curve fitting of the standard 4 parameter logistic fitting algorithm included in the Activity Base software package: IDBS XE Designer Model 205. Data is fitted using the Levenburg Marquardt algorithm.

[2] = molecular target: T2, USP25 (USP25-His6, Boston Biochem E-546) (Homo sapiens, UniProt Q9UHP3); assay: Ubiquitin-Rhodamine 110 Assay for USP25 Activity, Example A-2; conditions: Ubiquitin-Rhodamine 110 assay, Example A-2; read-out: USP25 A-2 IC50 range
T2 construct: His6; purchased Boston Biochem E-546
T2 sequence (Q9UHP3 1-1055): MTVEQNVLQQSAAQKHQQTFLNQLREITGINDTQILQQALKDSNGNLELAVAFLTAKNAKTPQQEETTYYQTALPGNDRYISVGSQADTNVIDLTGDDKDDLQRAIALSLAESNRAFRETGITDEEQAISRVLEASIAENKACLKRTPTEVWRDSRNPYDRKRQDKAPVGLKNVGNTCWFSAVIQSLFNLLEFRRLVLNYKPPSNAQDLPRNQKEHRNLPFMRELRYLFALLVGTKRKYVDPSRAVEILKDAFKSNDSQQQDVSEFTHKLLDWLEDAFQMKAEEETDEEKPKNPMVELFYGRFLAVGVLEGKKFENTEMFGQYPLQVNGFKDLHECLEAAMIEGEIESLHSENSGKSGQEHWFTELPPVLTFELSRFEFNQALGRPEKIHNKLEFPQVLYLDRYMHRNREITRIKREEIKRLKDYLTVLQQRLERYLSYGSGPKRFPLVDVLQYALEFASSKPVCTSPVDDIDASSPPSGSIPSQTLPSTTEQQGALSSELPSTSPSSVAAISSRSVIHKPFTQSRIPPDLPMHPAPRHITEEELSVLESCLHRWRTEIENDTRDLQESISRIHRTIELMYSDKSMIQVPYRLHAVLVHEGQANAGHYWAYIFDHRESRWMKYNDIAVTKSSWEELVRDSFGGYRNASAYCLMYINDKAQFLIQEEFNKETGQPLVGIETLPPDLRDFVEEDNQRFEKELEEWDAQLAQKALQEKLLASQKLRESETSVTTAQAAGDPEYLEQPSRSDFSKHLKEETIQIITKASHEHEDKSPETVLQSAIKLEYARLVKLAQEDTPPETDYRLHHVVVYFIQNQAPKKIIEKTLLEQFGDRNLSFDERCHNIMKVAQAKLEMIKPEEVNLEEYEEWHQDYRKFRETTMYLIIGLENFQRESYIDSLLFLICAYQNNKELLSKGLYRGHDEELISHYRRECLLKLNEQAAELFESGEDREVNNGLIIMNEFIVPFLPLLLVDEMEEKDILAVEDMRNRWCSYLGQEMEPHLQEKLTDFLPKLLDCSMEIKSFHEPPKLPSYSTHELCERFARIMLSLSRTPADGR
Procedure: The assay was performed in a final volume of 9 μL in assay buffer containing 20 mM Tris-HCl (pH 8.0, (1M Tris-HCl, pH 8.0 solution; Corning 46-031-CM)), 3 mM BME (2-Mercaptoethanol; Sigma 63689-25ML-F), 0.03% BGG (0.22 μM filtered, Sigma, G7516-25G), and 0.01% Triton X-100 (Sigma, T9284-10L). Nanoliter quantities of 10-point, 3-fold serial dilution in DMSO was pre-dispensed into 1536 assay plates (Corning, #3724BC) for a final test concentration of 25 μM to 1.3 nM, top to lowest dose, respectively. Enzyme USP25, construct USP25-His6, (Boston Biochem E-546). Concentration and incubation times were optimized for the maximal signal-to-background while maintaining initial velocity conditions at a fixed substrate concentration. The final concentration of the enzyme in the assay was 75 pM. Final substrate (Ub-Rh110; Ubiquitin-Rhodamine 110, R&D Systems #U-555) concentration was 25 nM with [Ub-Rh110]<<Km. 3 μL of 2× enzyme was added to assay plates (pre-stamped with compound) preincubated with […] for 30 minutes and then 3 μL of 2×Ub-Rh110 was added to assay plates. Plates were incubated for 45 minutes at room temperature before addition of 3 μL of stop solution (final concentration of 10 mM citric acid (Sigma, 251275-500G)). Fluorescence was read on the Envision (Excitation at 485 nm and Emission at 535 nm; Perkin Elmer) or on the PheraSTAR (Excitation at 485 nm and Emission at 535 nm; BMG Labtech).
IC50 values were determined by curve fitting of the standard 4 parameter logistic fitting algorithm included in the Activity Base software package: IDBS XE Designer Model 205. Data is fitted using the Levenburg Marquardt algorithm.

[3] = molecular target: T3, USP28 (His-tagged USP28-FL-mammalian) (Homo sapiens, UniProt Q96RU2); assay: Ubiquitin-Rhodamine 110 Assay for USP28 Activity, Example A-1(a); conditions: Ubiquitin-Rhodamine 110 assay, Example A-1(a); read-out: USP28 A-1(a) IC50 range
T3 construct: Expression of USP28 (1-1077)-TEV-6*His (pTT5 vector); made in house; host or cells: Expi293f cells (pTT5 vector)
T3 sequence (Q96RU2 1-1077): T1 sequence (Q96RU2 1-1077)
How it was run: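 Full-length His-tagged human USP28 (1-1077, Expi293f-expressed), […], with 25 nM Ub-Rh110 (<<Km) in pH 8.0 Tris buffer with BME, BGG, Triton X-100. 10-point dilutions (25 μM-1.3 nM), 45 min at room temperature, citric acid stop, fluorescence 485/535 nm; IC50 by 4-parameter fit.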

Compound | USP28 A-1(b) IC50 range ([1]; Ubiquitin-Rhodamine 110 assay) | IC50 [3] [nM] | further results
Cc1ccc2c(N)c(C(=O)N[C@@H]3COc4cc(N5CCN[C@@H](C)[C@H]5C)ccc4C3)sc2n1 (single isomer, unassigned) [Example 1-8] |  |  | USP28 A-1(b) IC50 range ([1]; Ub-Rh110 assay): ++++ (0.001-0.05 μM)
Cc1ccc2c(N)c(C(=O)N[C@H]3COc4cc(N5CC6CCC(C5)N6)cc(F)c4C3)sc2n1 (single isomer, unassigned) [Example 1-29] |  |  | USP28 A-1(b) IC50 range ([1]; Ub-Rh110 assay): +++ (0.05-0.2 μM)
Cc1ccc2c(N)c(C(=O)N[C@H]3COc4cc(N5CCNCC5)ccc4[C@H]3C)sc2n1 (single isomer, unassigned) [Example 11-15] | + (>2 μM) |  | 
Cc1ccc2c(N)c(C(=O)N[C@H]3COc4cc(N5CCNCC5)ccc4[C@@H]3C)sc2n1 (single isomer, unassigned) [Example 11-16] | + (>2 μM) |  | 
Cc1ccc2c(N)c(C(=O)NC3COc4cc(N5CCNCC5)ccc4C3C)sc2n1 (single isomer, unassigned) [Example 11-17] |  |  | IC50 [2]: > 2000 nM
Cc1cnc2c(N)c(C(=O)N[C@H]3CCc4cc(N5CCNCC5)ccc4C3)sc2n1 (single isomer, unassigned) [Example 11-19] | ++ (0.2-2 μM) |  | 
CO[C@@]12CCN[C@H]1CN(c1ccc3c(n1)CC[C@H](NC(=O)c1sc4nc(C)ccc4c1N)C3)C2 [Example 434, N-[(6S)-2-[(3aR,6aS)-3a-methoxy-octahydropyrrolo[2,3-c]pyrrol-5-yl]-5,6,7,8-tetrahydroquinolin-6-yl]-3-amino-6-methylthieno[2,3-b]pyridine-2-carboxamide] |  | 50 to 200 | 
CO[C@]12CCN[C@@H]1CN(c1ccc3c(n1)CC[C@H](NC(=O)c1sc4nc(C)ccc4c1N)C3)C2 [Example 435, N-[(6S)-2-[(3aS,6aR)-3a-methoxy-octahydropyrrolo[2,3-c]pyrrol-5-yl]-5,6,7,8-tetrahydroquinolin-6-yl]-3-amino-6-methylthieno[2,3-b]pyridine-2-carboxamide] |  | 50 to 200 | 
Cc1ccc2c(N)c(C(=O)N[C@H]3CCc4cc(N5C[C@@H](CF)[C@@H](N)C5)ccc4C3)sc2n1 [Example 436, 3-amino-N-[(2S)-6-[(3R,4R)-3-amino-4-(fluoromethyl)pyrrolidin-1-yl]-1,2,3,4-tetrahydronaphthalen-2-yl]-6-methylthieno[2,3-b]pyridine-2-carboxamide] |  | 1 to 50 | 
